Test results as given in patent US12378224B2 (Dong-A Socio Holdings Co., Ltd., priority 2016, dated 2025).

Target: human MER (528-end) (Homo sapiens (Human), UniProt Q12866)
Assay: HTRF Kinase Activity Biochemical Assay (KinEASE-TK)
Conditions: 10 uM ATP
Outline: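 Activity read-out is the HTRF ratio (665 nm over 620 nm emission, ×10,000; excitation 340 nm) after 1 h detection with 0.375 nM Eu3+-cryptate anti-TK antibody plus 0.062 uM SA-XL665. Preceding kinase step: human MER (528-end), biotinylated TK substrate, 1 h, room temperature.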

Sequence of human MER (528-end) (Q12866 528-999 limits assumed): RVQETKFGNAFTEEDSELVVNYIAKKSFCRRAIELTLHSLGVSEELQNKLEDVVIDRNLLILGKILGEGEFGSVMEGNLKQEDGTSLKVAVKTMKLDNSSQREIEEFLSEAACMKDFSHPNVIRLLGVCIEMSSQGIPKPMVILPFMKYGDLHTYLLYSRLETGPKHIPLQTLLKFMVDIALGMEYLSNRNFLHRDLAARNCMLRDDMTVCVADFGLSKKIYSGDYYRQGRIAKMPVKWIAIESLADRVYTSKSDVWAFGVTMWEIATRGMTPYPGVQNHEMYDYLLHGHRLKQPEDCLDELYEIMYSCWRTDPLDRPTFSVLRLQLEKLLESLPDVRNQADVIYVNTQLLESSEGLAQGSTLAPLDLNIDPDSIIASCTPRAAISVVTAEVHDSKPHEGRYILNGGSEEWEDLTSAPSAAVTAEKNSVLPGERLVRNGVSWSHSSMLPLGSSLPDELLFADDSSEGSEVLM

Compound | IC50
C/C(=C\c1ccc(C(=O)N2CC[C@@H](NC(=O)c3cc(-c4cnn(C)c4)cnc3N)C2)cc1)c1ccccc1 [Example 826, (R,E)-2-amino-5-(1-methyl-1H-pyrazol-4-yl)-N-(1-(4-(2-phenylprop-1-en-1-yl)benzoyl)pyrrolidin-3-yl)nicotinamide] | > 1000 nM
Cn1cc(-c2cnc(N)c(C(=O)N[C@@H]3CCN(C(=O)c4ccc(/C=C/C5CCNCC5)cc4)C3)c2)cn1 [Example 827, (R,E)-2-amino-5-(1-methyl-1H-pyrazol-4-yl)-N-(1-(4-(2-(piperidin-4-yl)vinyl)benzoyl)pyrrolidin-3-yl)nicotinamide] | > 1000 nM
COC(=O)/C=C/c1ccc(C(=O)N2CC[C@@H](NC(=O)c3cc(-c4cnn(C)c4)cnc3N)C2)cc1 [Example 828, methyl (R,E)-3-(4-(3-(2-amino-5-(1-methyl-1H-pyrazol-4-yl)nicotinamido)pyrrolidine-1-carbonyl)phenyl)acrylate] | > 1000 nM
Cn1cc(-c2cnc(N)c(C(=O)N[C@@H]3C[C@H](C(=O)O)N(C(=O)c4ccc(-c5ccc(F)cc5Cl)cc4)C3)c2)cn1 [Example 839, (2R,4R)-4-(2-amino-5-(1-methyl-1H-pyrazol-4-yl)nicotinamido)-1-(2′-chloro-4′-fluoro-[1,1′-biphenyl]-4-carbonyl)pyrrolidine-2-carboxylic acid] | > 1000 nM
(R)-2-amino-N-(1-(3,5-dihydroxy-2-naphthoyl)pyrrolidin-3-yl)-5-(1-methyl-1H-pyrazol-4-yl)nicotinamide [Example 668] | > 1000 nM

Target: human c-MER catalytic domain (Homo sapiens (Human), UniProt Q12866)
Assay: TR-FRET Kinase Activity Biochemical Assay (LanthaScreen)
Conditions: 10 uM ATP, 1 hour, kinase not given
Source text: For the SAR (structure-activity relationship) and compound screening, LanthaScreen™ TR-FRET (Time-Resolved fluorescence energy transfer) assay was employed using the phospho-tyrosine specific Terbium (Tb)-labelded antibody with a fluorescein labeled poly-GT (glutamate-tyrosine) as a substrate. Upon excitation at 340 nm by UV, the energy from Tb donor of the antibody is transferred to the fluorescein of the phosphorylated poly GT substrate, and fluorescein emits light at 520 nm. The ratio between the intensity of […] was used to quantify the level of kinase activity. The recombinant proteins of human c-MER and AXL catalytic domains, Fluorescein-labeled poly-GT substrate, Tb-labeled anti-phosphorylated tyrosine antibodies, the kinase assay buffer, and 0.5M EDTA solution were purchased (Life technologies, USA). The TR-FRET assays were carried out in the white low volume 384-well plate (Corning, USA). […] 10 mM EDTA was added to terminate the enzyme reaction, and the level of phosphorylation of poly-GT substrate was determined following 30 min incubation with 2 nM Tb-labeled antibody. The fluorescence intensity was measured with Envision™ plate reader (PerkinElmer, USA).

Sequence of human c-MER catalytic domain (Q12866 587-858): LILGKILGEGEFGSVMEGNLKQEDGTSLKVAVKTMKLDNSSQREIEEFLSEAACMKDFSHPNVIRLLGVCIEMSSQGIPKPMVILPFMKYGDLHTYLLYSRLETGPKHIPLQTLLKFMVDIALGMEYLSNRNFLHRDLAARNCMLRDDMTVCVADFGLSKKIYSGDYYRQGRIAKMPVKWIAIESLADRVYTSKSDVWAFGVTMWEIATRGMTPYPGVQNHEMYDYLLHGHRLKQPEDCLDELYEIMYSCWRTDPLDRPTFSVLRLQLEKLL

Compound | IC50
Cn1cc(-c2cnc(N)c(C(=O)N[C@@H]3CCN(C(=O)Nc4ccccc4)C3)c2)cn1 [Example 1, (R)-2-amino-5-(1-methyl-1H-pyrazol-4-yl)-N-(1-(phenylcarbamoyl)pyrrolidin-3-yl)nicotinamide] | 100 to 1000 nM
Nc1ncc(-c2ccc(C(=O)N3CCOCC3)cc2)cc1C(=O)N[C@@H]1CCN(C(=O)Nc2cc(Cl)cc(Cl)c2)C1 [Example 9, (R)-2-amino-N-(1-((3,5-dichlorophenyl)carbamoyl)pyrrolidin-3-yl)-5-(4-(morpholine-4-carbonyl)phenyl)nicotinamide] | 10 to 100 nM
Nc1ncc(-c2ccc(CO)cc2)cc1C(=O)N[C@@H]1CCN(C(=O)Nc2cc(Cl)cc(Cl)c2)C1 [Example 10, (R)-2-amino-N-(1-((3,5-dichlorophenyl)carbamoyl)pyrrolidin-3-yl)-5-(4-(hydroxymethyl)phenyl)nicotinamide] | 10 to 100 nM
Cn1cc(-c2cnc(N)c(C(=O)N[C@@H]3CCN(C(=O)Nc4cccnc4)C3)c2)cn1 [Example 13, (R)-2-amino-5-(1-methyl-1H-pyrazol-4-yl)-N-(1-(pyridin-3-ylcarbamoyl)pyrrolidin-3-yl)nicotinamide] | > 1000 nM
Cn1cc(-c2cnc(N)c(C(=O)N[C@@H]3CCN(C(=O)Nc4cccc(Cl)c4Cl)C3)c2)cn1 [Example 15, (R)-2-amino-N-(1-((2,3-dichlorophenyl)carbamoyl)pyrrolidin-3-yl)-5-(1-methyl-1H-pyrazol-4-yl)nicotinamide] | 10 to 100 nM
CCc1ccccc1NC(=O)N1CC[C@@H](NC(=O)c2cc(-c3cnn(C)c3)cnc2N)C1 [Example 20, (R)-2-amino-N-(1-((2-ethylphenyl)carbamoyl)pyrrolidin-3-yl)-5-(1-methyl-1H-pyrazol-4-yl)nicotinamide] | > 1000 nM
Cn1cc(-c2cnc(N)c(C(=O)N[C@@H]3CCN(C(=O)Nc4cccc(Br)c4)C3)c2)cn1 [Example 24, (R)-2-amino-N-(1-((3-bromophenyl)carbamoyl)pyrrolidin-3-yl)-5-(1-methyl-1H-pyrazol-4-yl)nicotinamide] | 100 to 1000 nM
COc1cc(NC(=O)N2CC[C@@H](NC(=O)c3cc(-c4cnn(C)c4)cnc3N)C2)cc(OC)c1OC [Example 35, (R)-2-amino-5-(1-methyl-1H-pyrazol-4-yl)-N-(1-((3,4,5-trimethoxyphenyl)carbamoyl)pyrrolidin-3-yl)nicotinamide] | 100 to 1000 nM
CN1CCN(Cc2ccc(-c3cnc(N)c(C(=O)N[C@@H]4CCN(C(=O)Nc5cccc(-c6ccccc6)c5)C4)c3)cc2)CC1 [Example 37, (R)—N-(1-([1,1′-biphenyl]-3-ylcarbamoyl)pyrrolidin-3-yl)-2-amino-5-(4-((4-methylpiperazin-1-yl)methyl)phenyl)nicotinamide] | 10 to 100 nM
Nc1ncc(-c2ccc(CN3CCC(O)CC3)cc2)cc1C(=O)N[C@@H]1CCN(C(=O)Nc2cccc(-c3ccccc3)c2)C1 [Example 39, (R)—N-(1-([1,1′-biphenyl]-3-ylcarbamoyl)pyrrolidin-3-yl)-2-amino-5-(4-((4-hydroxypiperidin-1-yl)methyl)phenyl)nicotinamide] | 10 to 100 nM
Cn1cc(-c2cnc(N)c(C(=O)N[C@@H]3CCN(C(=S)Nc4ccc(N5CCOCC5)cc4)C3)c2)cn1 [Example 49, (R)-2-amino-5-(1-methyl-1H-pyrazol-4-yl)-N-(1-((4-morpholinophenyl)carbamothioyl)pyrrolidin-3-yl)nicotinamide] | 100 to 1000 nM
Cn1cc(-c2cnc(N)c(C(=O)N[C@@H]3CCN(C(=O)Oc4ccccc4N)C3)c2)cn1 [Example 70, 2-aminophenyl (R)-3-(2-amino-5-(1-methyl-1H-pyrazol-4-yl)nicotinamido)pyrrolidine-1-carboxylate] | > 1000 nM
CC1CC(C)CC(OC(=O)N2CC[C@@H](NC(=O)c3cc(-c4cnn(C)c4)cnc3N)C2)C1 (stereo partly drawn) [Example 79, 3,5-dimethylcyclohexyl (3R)-3-(2-amino-5-(1-methyl-1H-pyrazol-4-yl)nicotinamido)pyrrolidine-1-carboxylate] | > 1000 nM
CN1CCN(Cc2ccc(-c3cnc(N)c(C(=O)N[C@@H]4CCN(C(=O)Oc5cccc(-c6ccccc6)c5)C4)c3)cc2)CC1 [Example 82, [1,1′-biphenyl]-3-yl (R)-3-(2-amino-5-(4-((4-methylpiperazin-1-yl)methyl)phenyl)nicotinamido)pyrrolidine-1-carboxylate] | 10 to 100 nM
Cn1cc(-c2cnc(N)c(C(=O)N[C@@H]3CCN(C(=O)Oc4ccc5ccc(O)cc5c4)C3)c2)cn1 [Example 95, 7-hydroxynaphthalen-2-yl (R)-3-(2-amino-5-(1-methyl-1H-pyrazol-4-yl)nicotinamido)pyrrolidine-1-carboxylate] | 100 to 1000 nM
C[C@H]1CCCC[C@H]1OC(=O)N1CC[C@@H](NC(=O)c2cc(-c3cnn(C)c3)cnc2N)C1 [Example 108, (1R,2S)-2-methylcyclohexyl (R)-3-(2-amino-5-(1-methyl-1H-pyrazol-4-yl)nicotinamido)pyrrolidine-1-carboxylate] | > 1000 nM
CN1CCN(Cc2ccc(Oc3ccc(OC(=O)N4CC[C@@H](NC(=O)c5cc(-c6cnn(C)c6)cnc5N)C4)cc3)cc2)CC1 [Example 113, 4-(4-((4-methylpiperazin-1-yl)methyl)phenoxy)phenyl (R)-3-(2-amino-5-(1-methyl-1H-pyrazol-4-yl)nicotinamido)pyrrolidine-1-carboxylate] | 100 to 1000 nM
Cn1cc(-c2cnc(N)c(C(=O)N[C@@H]3CCN(C(=O)Oc4cccc(-c5ccccc5)c4)C3)c2)cn1 [Example 117, [1,1′-biphenyl]-3-yl (R)-3-(2-amino-5-(1-methyl-1H-pyrazol-4-yl)nicotinamido)pyrrolidine-1-carboxylate] | 10 to 100 nM
CN1CCN(Cc2ccc(-c3cnc(N)c(C(=O)N[C@@H]4CCN(C(=O)Oc5ccccc5)C4)c3)cc2)CC1 [Example 118, phenyl (R)-3-(2-amino-5-(4-((4-methylpiperazin-1-yl)methyl)phenyl)nicotinamido)pyrrolidine-1-carboxylate] | 100 to 1000 nM
Cn1cc(-c2cnc(N)c(C(=O)N[C@@H]3CCN(C(=O)O[C@H]4CCC[C@@H]4OCc4ccccc4)C3)c2)cn1 [Example 120, (1S,2S)-2-(benzyloxy)cyclopentyl (R)-3-(2-amino-5-(1-methyl-1H-pyrazol-4-yl)nicotinamido)pyrrolidine-1-carboxylate] | > 1000 nM
Cn1cc(-c2cnc(N)c(C(=O)N[C@@H]3CCN(C(=O)OC4CCC(c5ccccc5)C4)C3)c2)cn1 (stereo partly drawn) [Example 121, 3-phenylcyclopentyl (3R)-3-(2-amino-5-(1-methyl-1H-pyrazol-4-yl)nicotinamido)pyrrolidine-1-carboxylate] | 100 to 1000 nM
Cn1cc(-c2cnc(N)c(C(=O)N[C@@H]3CCN(C(=O)OC4CCCN(c5ccc(C=O)cc5)C4)C3)c2)cn1 (stereo partly drawn) [Example 123, 1-(4-formylphenyl)piperidin-3-yl (3R)-3-(2-amino-5-(1-methyl-1H-pyrazol-4-yl)nicotinamido)pyrrolidine-1-carboxylate] | > 1000 nM
Cn1cc(-c2cnc(N)c(C(=O)N[C@@H]3CCN(C(=O)OC4CCN(c5ccccc5)C4)C3)c2)cn1 (stereo partly drawn) [Example 126, 1-phenylpyrrolidin-3-yl (3R)-3-(2-amino-5-(1-methyl-1H-pyrazol-4-yl)nicotinamido)pyrrolidine-1-carboxylate] | > 1000 nM
Cn1cc(-c2cnc(N)c(C(=O)N[C@@H]3CCN(C(=O)O[C@@H]4CCN(c5ccccc5)C4)C3)c2)cn1 [Example 127, (R)-1-phenylpyrrolidin-3-yl (R)-3-(2-amino-5-(1-methyl-1H-pyrazol-4-yl)nicotinamido)pyrrolidine-1-carboxylate] | > 1000 nM
